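Dose response: 5 concentrations. Exposure: 48 h. Format: 96-well plates. Endpoint: linear interpolation; highest concentration if not reached. At the GI50, growth is halved. Definition used: TGI = concentration required for complete inhibition of growth.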
Assays:
Assay in all cases: NCI-60 cell line screen, 48 h
[1] = tested on: A549 NSCLC
[2] = tested on: ACHN renal
[3] = tested on: HCC-2998 colon
[4] = tested on: M14 melanoma
[5] = tested on: OVCAR-3 ovarian
[6] = tested on: OVCAR-8 ovarian
[7] = tested on: SF-539 CNS
[8] = tested on: SW-620 colon
[9] = tested on: UACC-62 melanoma
[10] = tested on: UO-31 renal

| Compound | GI50 [1] [µM] | TGI [1] [µM] | GI50 [2] [µM] | TGI [2] [µM] | GI50 [3] [µM] | TGI [3] [µM] | GI50 [4] [µM] | TGI [4] [µM] | GI50 [5] [µM] | TGI [5] [µM] | GI50 [6] [µM] | TGI [6] [µM] | GI50 [7] [µM] | TGI [7] [µM] | GI50 [8] [µM] | TGI [8] [µM] | GI50 [9] [µM] | TGI [9] [µM] | GI50 [10] [µM] | TGI [10] [µM] |
| --- | --- | --- | --- | --- | --- | --- | --- | --- | --- | --- | --- | --- | --- | --- | --- | --- | --- | --- | --- | --- |
| N#Cc1ccc(OC(=O)Nc2ccc(Cl)c(Cl)c2)cc1 | 3.43 | > 100 | 2.97 | 14.5 | 4.79 | 26.5 | 4.3 | 59 | 3.01 | 9.1 | 3.3 | 44.8 | 4.43 | 33 | 3.31 | > 100 | 3.06 | 31.7 | 2.99 | 24.8 |
| Nc1ccccc1SC1CC(=O)N(c2ccc(Cl)c(Cl)c2)C1=O (centres undefined) | 19.5 | > 100 | 19.4 | 74.9 | 59.6 | > 100 | 40.4 | > 100 | 11.6 | 44 | 20 | 77.8 | 63.6 | > 100 | 56.5 | > 100 | 14 | > 100 | 11.7 | 45 |
| N.N.NCCCCCCCCCN.O=C([O-])CC(=O)[O-].O=C([O-])CC(=O)[O-].[Pt+4].[Pt+4] | > 100 | > 100 | 90.3 | > 100 | > 100 | > 100 | 50.5 | > 100 | > 100 | > 100 | > 100 | > 100 | > 100 | > 100 | 66.4 | > 100 | 23.1 | > 100 | > 100 | > 100 |
| COC(C(=O)[C@@H](O)[C@@H](C)O)[C@@H]1Cc2cc3cc(O[C@H]4C[C@@H](O[C@H]5C[C@@H](O)[C@H](O)C(C)O5)[C@H](O)C(C)O4)c(C)c(O)c3c(O)c2C(=O)[C@H]1O[C@H]1C[C@@H](O[C@H]2C[C@@H](O[C@H]3C[C@@H](O)[C@H](OC)C(C)O3)[C@@H](O)C(C)O2)[C@H](O)C(C)O1 (some centres undefined) |  | > 33.3 | 0.0831 | > 33.3 | 0.0293 | 0.114 | 0.0372 | 0.349 | 0.0212 | 1.04 | 0.0286 | > 33.3 | 0.0142 | 0.101 | 0.0197 | > 33.3 | 0.00659 | 0.0217 | 0.0953 | 0.934 |
| O=C(N/N=C/c1c(Cl)cccc1Cl)c1ccc(C(F)(F)F)nc1Nc1cccc(C(F)(F)F)c1 | 1.54 | > 36.1 | 1.26 | 11.3 | 3.97 | > 100 | 1.6 | > 31.1 | 0.284 | 6.47 | 1.07 | > 45.6 | 2.11 | 8.09 | 0.458 | > 51.1 | 1.39 | 4.12 | 1.49 | 5.82 |
